According to ChEMBL document CHEMBL5465560, “Selectivity Literature for EUbOPEN Chemogenomic Library” (2024):

Assays:
[1] = biological target: T1, Mitogen-activated protein kinase 15 (Homo sapiens) (UniProt Q8TD08); settings: at 10 µM
T1 sequence (whole entry): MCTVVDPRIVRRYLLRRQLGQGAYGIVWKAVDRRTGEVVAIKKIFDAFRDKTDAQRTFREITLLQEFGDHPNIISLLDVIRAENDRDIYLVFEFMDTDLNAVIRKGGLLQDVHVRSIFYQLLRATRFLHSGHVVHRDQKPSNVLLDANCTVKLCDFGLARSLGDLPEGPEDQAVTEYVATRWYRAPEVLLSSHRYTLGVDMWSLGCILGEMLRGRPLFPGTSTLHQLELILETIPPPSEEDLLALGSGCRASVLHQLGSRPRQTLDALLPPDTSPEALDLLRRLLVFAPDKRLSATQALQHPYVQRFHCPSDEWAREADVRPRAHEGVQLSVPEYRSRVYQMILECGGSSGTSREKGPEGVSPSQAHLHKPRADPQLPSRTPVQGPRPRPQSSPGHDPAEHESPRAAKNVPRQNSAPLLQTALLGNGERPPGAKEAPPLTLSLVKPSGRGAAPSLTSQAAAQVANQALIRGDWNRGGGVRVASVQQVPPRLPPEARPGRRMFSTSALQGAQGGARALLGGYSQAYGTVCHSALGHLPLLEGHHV

[2] = biological target: T2, Interleukin-1 receptor-associated kinase 3 (Homo sapiens) (UniProt Q9Y616); assay: Selectivity interaction (KinomeScan (DiscoverX)) EUB0001550a IRAK3; settings: at 1 µM
T2 sequence (whole entry): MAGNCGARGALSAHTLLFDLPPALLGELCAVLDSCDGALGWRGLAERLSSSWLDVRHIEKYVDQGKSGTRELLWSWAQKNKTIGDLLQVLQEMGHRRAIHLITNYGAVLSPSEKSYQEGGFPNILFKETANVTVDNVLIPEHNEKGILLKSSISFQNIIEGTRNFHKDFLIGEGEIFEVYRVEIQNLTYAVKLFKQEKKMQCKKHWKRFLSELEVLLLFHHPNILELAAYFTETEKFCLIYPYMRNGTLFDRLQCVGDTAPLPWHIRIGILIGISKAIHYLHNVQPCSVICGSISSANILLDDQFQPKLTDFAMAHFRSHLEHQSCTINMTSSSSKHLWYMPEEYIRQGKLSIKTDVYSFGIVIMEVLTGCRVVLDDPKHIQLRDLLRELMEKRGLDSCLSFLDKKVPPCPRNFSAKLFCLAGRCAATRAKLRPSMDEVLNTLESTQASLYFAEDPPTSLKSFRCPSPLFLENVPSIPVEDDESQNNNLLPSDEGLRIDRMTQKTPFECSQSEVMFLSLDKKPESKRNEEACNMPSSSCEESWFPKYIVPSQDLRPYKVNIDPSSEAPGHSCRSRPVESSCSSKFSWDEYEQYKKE

[3] = biological target: Fibroblast growth factor receptor 1 (Homo sapiens, UniProt P11362); assay: Selectivity interaction (KinomeScan (DiscoverX)) EUB0000655a FGFR1; settings: at 10 µM
[4] = biological target: ALK tyrosine kinase receptor (Homo sapiens, UniProt Q9UM73); assay: Selectivity interaction (KinomeScan (DiscoverX)) EUB0000655a ALK; settings: at 10 µM
[5] = biological target: T3, Kinase suppressor of Ras 2 (Homo sapiens) (UniProt Q6VAB6); assay: Selectivity interaction (Kinase panel (Z-LYTE Assay)) EUB0001632a KSR2; settings: at 10 µM
T3 sequence (whole entry): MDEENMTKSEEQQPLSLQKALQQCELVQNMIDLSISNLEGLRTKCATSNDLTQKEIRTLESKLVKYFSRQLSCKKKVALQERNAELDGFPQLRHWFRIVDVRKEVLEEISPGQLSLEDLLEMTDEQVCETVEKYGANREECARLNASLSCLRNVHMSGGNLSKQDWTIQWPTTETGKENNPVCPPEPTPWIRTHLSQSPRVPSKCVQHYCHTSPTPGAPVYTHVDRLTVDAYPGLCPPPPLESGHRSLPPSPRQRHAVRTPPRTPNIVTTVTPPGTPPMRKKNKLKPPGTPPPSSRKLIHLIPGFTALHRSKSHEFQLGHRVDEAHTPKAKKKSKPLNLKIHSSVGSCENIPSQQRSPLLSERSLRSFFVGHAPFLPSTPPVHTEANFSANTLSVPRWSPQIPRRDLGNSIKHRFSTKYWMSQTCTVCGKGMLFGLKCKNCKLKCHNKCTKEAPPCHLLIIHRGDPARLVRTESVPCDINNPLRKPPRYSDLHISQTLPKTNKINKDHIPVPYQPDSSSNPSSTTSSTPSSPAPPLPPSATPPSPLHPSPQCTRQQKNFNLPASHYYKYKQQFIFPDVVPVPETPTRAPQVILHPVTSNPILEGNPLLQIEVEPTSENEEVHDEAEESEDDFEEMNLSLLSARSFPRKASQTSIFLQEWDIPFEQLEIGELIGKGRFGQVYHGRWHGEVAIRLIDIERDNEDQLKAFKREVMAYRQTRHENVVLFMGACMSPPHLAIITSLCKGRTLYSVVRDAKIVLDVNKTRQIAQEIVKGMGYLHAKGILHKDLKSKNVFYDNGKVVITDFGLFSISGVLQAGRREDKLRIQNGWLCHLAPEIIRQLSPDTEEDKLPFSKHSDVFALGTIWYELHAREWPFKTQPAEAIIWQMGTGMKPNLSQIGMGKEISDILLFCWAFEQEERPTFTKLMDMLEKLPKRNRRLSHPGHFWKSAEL

[6] = biological target: Mitogen-activated protein kinase kinase kinase 14 (Homo sapiens) (UniProt Q99558); assay: Selectivity interaction (LanthaScreen Eu Kinase Binding Assay) EUB0001632a MAP3K14; settings: at 10 µM
[7] = test system: eIF-2-alpha kinase GCN2 (Homo sapiens), Q9P2K8 [S808G]; assay: Selectivity interaction (KinomeScan (DiscoverX)) EUB0000607a EIF2AK4; settings: at 10 µM
[8] = biological target: Receptor tyrosine-protein kinase erbB-2 (Homo sapiens, UniProt P04626); assay: Selectivity interaction (KinomeScan (DiscoverX)) EUB0000045b ERBB2
[9] = biological target: Calcium/calmodulin-dependent protein kinase type 1D (Homo sapiens) (UniProt Q8IU85); assay: Selectivity interaction (KinomeScan (DiscoverX)) EUB0000045b CAMK1D
[10] = biological target: Platelet-derived growth factor receptor alpha (Homo sapiens, UniProt P16234); assay: Selectivity interaction (KinomeScan (DiscoverX)) EUB0000618a PDGFRA; settings: at 10 µM
[11] = biological target: Homeodomain-interacting protein kinase 2 (Homo sapiens, UniProt Q9H2X6); assay: Selectivity interaction (KinomeScan (DiscoverX)) EUB0000618a HIPK2; settings: at 10 µM
[12] = biological target: Rho-associated protein kinase 1 (Homo sapiens) (UniProt Q13464); assay: Selectivity interaction (Ambit KINOMEscan and KiNATiv profiling in Jurkat cells) EUB0000090b ROCK1; type: cell-based; settings: at 1 µM
Chain of Rho-associated protein kinase 1 (Homo sapiens) (Q13464 2-1354 limits assumed): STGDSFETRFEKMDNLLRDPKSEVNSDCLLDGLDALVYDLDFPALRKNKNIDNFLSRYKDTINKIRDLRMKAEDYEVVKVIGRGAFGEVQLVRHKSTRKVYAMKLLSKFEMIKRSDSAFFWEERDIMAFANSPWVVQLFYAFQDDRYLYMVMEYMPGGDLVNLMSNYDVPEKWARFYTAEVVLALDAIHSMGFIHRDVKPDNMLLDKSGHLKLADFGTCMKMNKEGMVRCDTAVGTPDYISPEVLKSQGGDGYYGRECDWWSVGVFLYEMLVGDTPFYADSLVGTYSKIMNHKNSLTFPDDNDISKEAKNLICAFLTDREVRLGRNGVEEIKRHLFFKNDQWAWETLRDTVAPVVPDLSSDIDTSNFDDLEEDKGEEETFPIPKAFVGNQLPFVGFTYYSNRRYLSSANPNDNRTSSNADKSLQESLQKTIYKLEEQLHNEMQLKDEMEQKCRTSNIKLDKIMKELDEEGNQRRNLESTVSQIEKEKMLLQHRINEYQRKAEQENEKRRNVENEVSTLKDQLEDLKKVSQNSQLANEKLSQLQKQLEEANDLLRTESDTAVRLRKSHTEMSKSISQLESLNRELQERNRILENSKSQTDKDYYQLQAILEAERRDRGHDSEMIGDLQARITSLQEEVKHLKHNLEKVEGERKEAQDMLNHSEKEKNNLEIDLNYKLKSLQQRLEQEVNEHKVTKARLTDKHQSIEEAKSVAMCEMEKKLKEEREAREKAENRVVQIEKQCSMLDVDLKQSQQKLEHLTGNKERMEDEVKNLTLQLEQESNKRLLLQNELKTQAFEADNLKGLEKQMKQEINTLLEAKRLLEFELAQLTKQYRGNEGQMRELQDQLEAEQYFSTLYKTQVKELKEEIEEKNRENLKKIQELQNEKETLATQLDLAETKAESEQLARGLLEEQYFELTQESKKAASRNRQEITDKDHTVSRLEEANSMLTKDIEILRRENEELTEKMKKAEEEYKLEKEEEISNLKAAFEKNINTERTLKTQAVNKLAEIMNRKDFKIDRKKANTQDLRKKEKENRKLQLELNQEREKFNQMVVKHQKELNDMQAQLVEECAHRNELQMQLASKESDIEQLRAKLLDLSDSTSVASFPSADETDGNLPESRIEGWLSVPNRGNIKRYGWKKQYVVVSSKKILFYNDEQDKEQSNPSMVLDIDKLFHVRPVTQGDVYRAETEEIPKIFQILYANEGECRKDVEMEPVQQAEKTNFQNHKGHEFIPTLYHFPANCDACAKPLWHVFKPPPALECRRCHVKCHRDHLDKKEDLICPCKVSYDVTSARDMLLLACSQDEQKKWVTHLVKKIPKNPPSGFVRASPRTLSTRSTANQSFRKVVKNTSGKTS

Chain of Calcium/calmodulin-dependent protein kinase type 1D (Homo sapiens) (Q8IU85 whole entry, looked up): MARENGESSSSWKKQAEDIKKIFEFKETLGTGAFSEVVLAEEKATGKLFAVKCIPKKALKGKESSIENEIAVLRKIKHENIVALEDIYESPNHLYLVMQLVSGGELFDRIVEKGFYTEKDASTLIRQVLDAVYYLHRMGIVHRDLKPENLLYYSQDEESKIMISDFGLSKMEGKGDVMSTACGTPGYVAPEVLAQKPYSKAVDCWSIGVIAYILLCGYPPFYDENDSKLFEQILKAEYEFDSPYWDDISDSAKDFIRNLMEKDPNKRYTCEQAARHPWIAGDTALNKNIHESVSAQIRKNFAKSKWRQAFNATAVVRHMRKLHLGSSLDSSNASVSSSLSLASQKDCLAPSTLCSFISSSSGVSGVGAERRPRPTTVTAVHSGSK
Chain of Receptor tyrosine-protein kinase erbB-2 (P04626 whole entry): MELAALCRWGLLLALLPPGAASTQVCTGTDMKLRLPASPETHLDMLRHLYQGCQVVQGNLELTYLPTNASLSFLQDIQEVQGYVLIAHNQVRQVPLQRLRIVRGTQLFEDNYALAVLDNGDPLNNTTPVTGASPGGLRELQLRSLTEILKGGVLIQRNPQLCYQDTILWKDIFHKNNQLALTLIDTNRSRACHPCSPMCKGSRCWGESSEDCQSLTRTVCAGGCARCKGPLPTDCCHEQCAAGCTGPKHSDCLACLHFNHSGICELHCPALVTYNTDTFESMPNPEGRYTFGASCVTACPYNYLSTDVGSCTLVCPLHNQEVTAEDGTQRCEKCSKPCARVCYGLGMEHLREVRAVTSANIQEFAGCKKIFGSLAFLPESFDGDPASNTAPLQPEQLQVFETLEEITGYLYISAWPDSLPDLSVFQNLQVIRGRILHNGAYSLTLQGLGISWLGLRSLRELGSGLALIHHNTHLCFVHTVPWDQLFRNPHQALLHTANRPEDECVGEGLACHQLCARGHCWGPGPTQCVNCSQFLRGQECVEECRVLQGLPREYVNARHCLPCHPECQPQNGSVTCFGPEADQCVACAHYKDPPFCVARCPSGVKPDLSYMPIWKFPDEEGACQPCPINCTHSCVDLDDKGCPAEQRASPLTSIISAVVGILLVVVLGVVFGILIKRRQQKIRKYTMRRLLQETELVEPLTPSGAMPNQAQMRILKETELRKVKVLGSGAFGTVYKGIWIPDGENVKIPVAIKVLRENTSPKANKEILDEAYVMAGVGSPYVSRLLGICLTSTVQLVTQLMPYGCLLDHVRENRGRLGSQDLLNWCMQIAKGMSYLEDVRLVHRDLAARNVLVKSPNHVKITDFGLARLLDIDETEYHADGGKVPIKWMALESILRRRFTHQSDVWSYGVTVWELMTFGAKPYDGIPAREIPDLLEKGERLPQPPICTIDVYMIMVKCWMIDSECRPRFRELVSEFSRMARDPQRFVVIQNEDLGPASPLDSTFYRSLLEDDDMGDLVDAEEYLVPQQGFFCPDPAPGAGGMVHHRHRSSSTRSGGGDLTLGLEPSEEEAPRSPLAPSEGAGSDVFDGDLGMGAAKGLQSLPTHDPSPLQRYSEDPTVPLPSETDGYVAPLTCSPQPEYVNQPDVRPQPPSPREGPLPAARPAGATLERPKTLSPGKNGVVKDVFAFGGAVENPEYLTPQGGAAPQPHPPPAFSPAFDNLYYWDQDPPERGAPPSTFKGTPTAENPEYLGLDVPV
Chain of Fibroblast growth factor receptor 1 (P11362 22-822 limits assumed): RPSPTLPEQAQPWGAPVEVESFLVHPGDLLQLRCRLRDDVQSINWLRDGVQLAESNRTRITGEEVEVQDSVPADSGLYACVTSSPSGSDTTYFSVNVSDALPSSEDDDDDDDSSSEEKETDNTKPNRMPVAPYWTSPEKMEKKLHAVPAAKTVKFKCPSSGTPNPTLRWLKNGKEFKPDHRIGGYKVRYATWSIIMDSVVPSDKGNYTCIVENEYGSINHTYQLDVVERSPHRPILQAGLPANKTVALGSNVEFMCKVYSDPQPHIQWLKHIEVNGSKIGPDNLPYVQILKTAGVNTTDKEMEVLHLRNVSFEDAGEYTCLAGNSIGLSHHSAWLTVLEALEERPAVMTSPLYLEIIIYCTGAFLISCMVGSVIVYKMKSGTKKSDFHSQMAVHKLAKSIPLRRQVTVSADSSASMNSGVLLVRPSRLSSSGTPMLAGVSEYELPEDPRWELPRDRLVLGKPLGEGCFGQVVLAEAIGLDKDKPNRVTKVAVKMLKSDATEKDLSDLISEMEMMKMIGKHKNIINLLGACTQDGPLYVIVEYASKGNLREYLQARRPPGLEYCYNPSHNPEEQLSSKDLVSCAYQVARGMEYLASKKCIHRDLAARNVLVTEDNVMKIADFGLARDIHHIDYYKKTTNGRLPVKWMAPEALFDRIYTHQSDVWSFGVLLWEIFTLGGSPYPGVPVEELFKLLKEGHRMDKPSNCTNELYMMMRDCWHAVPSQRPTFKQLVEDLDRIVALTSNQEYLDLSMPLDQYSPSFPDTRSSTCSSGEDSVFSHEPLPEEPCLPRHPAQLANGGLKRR
Chain of Homeodomain-interacting protein kinase 2 (Q9H2X6 whole entry, looked up): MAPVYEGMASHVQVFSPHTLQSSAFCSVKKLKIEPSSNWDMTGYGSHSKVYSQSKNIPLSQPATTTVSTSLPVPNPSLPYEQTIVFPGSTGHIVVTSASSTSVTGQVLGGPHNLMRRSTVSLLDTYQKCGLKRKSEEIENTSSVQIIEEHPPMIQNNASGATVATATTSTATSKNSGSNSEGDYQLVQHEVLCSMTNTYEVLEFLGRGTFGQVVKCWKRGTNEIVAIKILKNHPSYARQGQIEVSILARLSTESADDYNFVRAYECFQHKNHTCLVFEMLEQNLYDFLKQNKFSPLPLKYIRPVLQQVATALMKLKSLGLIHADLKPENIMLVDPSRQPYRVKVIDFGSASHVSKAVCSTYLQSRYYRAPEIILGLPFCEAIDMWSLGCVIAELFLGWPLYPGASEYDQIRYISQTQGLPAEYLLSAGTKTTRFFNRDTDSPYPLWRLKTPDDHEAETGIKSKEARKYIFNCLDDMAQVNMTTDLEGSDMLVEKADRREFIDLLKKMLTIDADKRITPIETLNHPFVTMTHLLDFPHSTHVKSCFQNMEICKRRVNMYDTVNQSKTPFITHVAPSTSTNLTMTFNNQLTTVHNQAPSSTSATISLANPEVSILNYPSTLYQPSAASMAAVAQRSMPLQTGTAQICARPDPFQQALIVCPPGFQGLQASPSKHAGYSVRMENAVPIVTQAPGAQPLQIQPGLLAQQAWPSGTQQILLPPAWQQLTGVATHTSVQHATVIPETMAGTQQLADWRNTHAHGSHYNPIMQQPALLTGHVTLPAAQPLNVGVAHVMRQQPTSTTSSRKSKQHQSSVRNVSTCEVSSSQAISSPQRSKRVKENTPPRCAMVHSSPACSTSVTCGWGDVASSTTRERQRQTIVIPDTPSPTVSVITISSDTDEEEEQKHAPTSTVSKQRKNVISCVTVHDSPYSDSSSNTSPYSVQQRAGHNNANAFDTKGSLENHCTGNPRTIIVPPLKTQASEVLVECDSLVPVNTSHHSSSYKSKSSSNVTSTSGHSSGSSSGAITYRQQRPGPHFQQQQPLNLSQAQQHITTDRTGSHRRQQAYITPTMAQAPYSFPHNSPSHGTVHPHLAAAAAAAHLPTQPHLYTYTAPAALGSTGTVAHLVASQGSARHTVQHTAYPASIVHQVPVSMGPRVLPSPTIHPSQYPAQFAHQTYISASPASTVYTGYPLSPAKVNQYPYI

Q: `CCN(CC)CCCCNc1ncc2cc(-c3cc(OC)cc(OC)c3)c(NC(=O)NC(C)(C)C)nc2n1` was tested. Which % of control [1] did it give?
A: 100%

Q: `CN(C)CC#Cc1ccc2[nH]c3c(c2c1)-c1nc(N)ncc1CCC3` was tested. Which % of control [2] did it give?
A: 9.2%

Q: For `CN(C)CCOc1ccc(-c2nc(-c3ccncc3)c(-c3ccc4c(c3)CC/C4=N\O)[nH]2)cc1`, which % of control [3] is on record?
A: 99%

Q: And the % of control [4]?
A: 45%

Q: For `Cn1cc(-n2cnc3c(NCc4nc5cc(Cl)c(Cl)cc5[nH]4)nc(N4CCOCC4)nc32)cn1`, which % of control [5] is on record?
A: 1.65%

Q: What about the % of inhibition [6] of the same compound?
A: -10.4%

Q: How did the % of control [7] turn out when `CNC(=O)Nc1ccc(-c2nc(N3CC4CCC(C3)O4)c3cnn(C4CCC5(CC4)OCCO5)c3n2)cc1` was run?
A: 83%

Q: `C=CC(=O)Nc1cc(-n2c(=O)ccc3cnc4ccc(-c5ccc(NS(C)(=O)=O)cc5)cc4c32)ccc1C` was tested. Which % of control ([8]; at 1 µM) did it give?
A: 90%

Q: What about the % of control ([8]; at 10 µM) of the same compound?
A: 26%

Q: And the % of control ([9]; at 1 µM)?
A: 100%

Q: What about the % of control ([9]; at 10 µM) of the same compound?
A: 77%

Q: What does the source list for `O[C@H]1CC[C@H](Nc2ncc3nc(Nc4c(F)cc(F)cc4F)n([C@H]4CCOC4)c3n2)CC1`?
A: % of control [10]: 82%; % of control [11]: 86%

Q: With `CN(C)C/C=C/C(=O)Nc1ccc(C(=O)N2CCCC(Nc3ncc(Cl)c(-c4c[nH]c5ccccc45)n3)C2)cc1` (centres undefined) as the compound, how does the % of control [12] read?
A: 90%
